These results are taken from patent US20180312542A1, “ENDOSOMAL ESCAPE PEPTIDES” (priority 2015, published 2018).

For the data set, the system named is cochlear hair cells and supporting cells of Cre reporter transgenic mice. In words: In vivo protein delivery of Cre recombinase into mouse neonatal cochleas. Conditions: 0.4 μL of 50 μM, 5 days; for cochlear cells survived as compared to +36 GFP-Cre treatment: scala media. As to the method:
FIGS. 6A-6C. In vivo protein delivery of Cre recombinase into mouse neonatal cochleas. 0.4 μL of 50 μM+36 GFP-Cre or aurein 1.2-+36 GFP-Cre were injected into the scala media. (FIG. 6A) Five days after injection, cochlea were harvested. Inner hair cells (IHC), outer hair cells (OHC) and supporting cells in the sensory epithelium (SE) were imaged for the presence of tdTomato, which is only expressed following Cre-mediated recombination. Hair cells were labeled with antibodies against the hair-cell marker Myo7a. (FIG. 6B) To evaluate cytotoxicity, the number of outer hair cells and inner hair cells were measured by counting DAPI-stained cells. (FIG. 6C) The percentage of tdTomato positive cells, reflecting successful delivery of functional Cre recombinase, was determined by fluorescence imaging.
To evaluate the ability of aurein 1.2 to increase the efficacy of cationic protein delivery in vivo, proteins were delivered to the inner ear of Cre reporter transgenic mice that express tdTomato upon Cre-mediated recombination. This animal model was chosen due to its confined injection volume, the presence of well-characterized cell types, and the existence of genetic deafness models that would facilitate future studies of protein delivery to treat hearing loss.
Anesthetized postnatal day 2 (P2) mice were injected with 0.4 μL of 50 μM+36 GFP-Cre or aurein 1.2-+36 GFP-Cre solutions in the scala media to access the cochlear cells. Five days after injection, the cochleas were harvested for immunolabeling of inner ear cell markers and imaging for tdTomato florescence (FIG. 6A). Both the hair cells (Myo7a+) and supporting cells (Myo7a−) were evaluated for td Tomato signal. The total number of hair cells and supporting cells (by DAPI labeling) in the sensory epithelium (SE) was used to determine the relative toxicity of aurein 1.2-+36 GFP-Cre to the baseline treatment of +36 GFP-Cre ([…]).
P1-2 Gt(ROSA)26Sor^tm14(CAG-tdTomato)Hze mice were used for aurein 1.2-+36-GFP-Cre and +36-GFP-Cre injection. The Rosa26-tdTomato mice were from the Jackson Laboratory. Animals were used under protocols approved by the Massachusetts Eye & Ear Infirmary IACUC committee. Mice were anesthetized by hypothermia on ice. Cochleostomies were performed by making an incision behind the ear to expose the cochlea. Glass micropipettes held by a micromanipulator were used to deliver the complex into the scala media, which allows access to inner ear hair cells. The total delivery volume for every injection was 0.4 μL per cochlea and the release was controlled by a micromanipulator at the speed of 69 nL/min.
5 days after injection, the mice were sacrificed and cochlea were harvested by standard protocols. See, e.g., Sage et al. Science 2005, 307, 1114. For immunohistochemistry, antibodies against hair-cell markers (Myo7a) and supporting cells (Sox2) were used following a previously described protocol. To quantify the number of tdTomato positive cells after aurein 1.2-+36-GFP-Cre and +36-GFP-Cre, we counted the total number of inner and outer hair cells in a region spanning 100 μm in the apex, middle, and base turn of the cochlea.

As for “aurein 1.2-+36 GFP-Cre: fusion protein of aurein 1.2, +36 GFP and Cre recombinase, SEQ ID NO: 77”, for the setting “apex”, the “Cre-mediated recombination, inner hair cells (IHC)” value (shortened to “Cre-mediated recombination … (IHC)”) turned out to be 100%; the “Cre-mediated recombination, outer hair cells (OHC)” value (“Cre-mediated recombination … (OHC)” below) came to 96%; the “cochlear cells survived as compared to +36 GFP-Cre treatment” value worked out at 96%. For the setting “base”, the “Cre-mediated recombination … (IHC)” value worked out at 70%; the “Cre-mediated recombination … (OHC)” value was 69%; the “cochlear cells survived as compared to +36 GFP-Cre treatment” value was found to be 66%. Also, where the note is “middle”, the “Cre-mediated recombination … (IHC)” value was found to be 94%; the “Cre-mediated recombination … (OHC)” value is 91%; the “cochlear cells survived as compared to +36 GFP-Cre treatment” value amounted to 92%.
